Data: ChEMBL document CHEMBL1155201, “Structure-activity studies on seco-pancratistatin analogs: potent inhibitors of human cytochrome P450 3A4” (Bioorg Med Chem Lett, 2009)

Assays:
Cytochrome P450 3A4 [1] = target: T1, Cytochrome P450 3A4 (Homo sapiens, UniProt P08684); assay: Inhibition of human recombinant CYP3A4 assessed as biotransformation of 7-benzyloxyquinoline to 7-hydroxyquinoline at 10 uM measured every 15 mins by fluorescence intensity analysis; type: ADME; conditions: recombinant enzyme, 0.25 h
T1 sequence (P08684 whole entry): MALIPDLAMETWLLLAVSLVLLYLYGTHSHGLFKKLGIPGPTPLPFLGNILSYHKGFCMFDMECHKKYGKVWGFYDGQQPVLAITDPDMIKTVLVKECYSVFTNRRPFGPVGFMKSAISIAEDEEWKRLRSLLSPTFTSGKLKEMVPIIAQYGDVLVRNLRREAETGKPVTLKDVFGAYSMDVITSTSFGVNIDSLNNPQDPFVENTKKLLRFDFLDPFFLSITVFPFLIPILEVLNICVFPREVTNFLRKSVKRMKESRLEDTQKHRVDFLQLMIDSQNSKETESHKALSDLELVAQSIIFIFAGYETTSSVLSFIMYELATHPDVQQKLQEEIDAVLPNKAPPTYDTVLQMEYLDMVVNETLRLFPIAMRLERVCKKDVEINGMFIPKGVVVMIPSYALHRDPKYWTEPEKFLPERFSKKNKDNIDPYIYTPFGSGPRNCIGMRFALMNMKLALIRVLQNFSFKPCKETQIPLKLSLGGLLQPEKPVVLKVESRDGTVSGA

Cytochrome P450 3A4 [2] = target: T1, Cytochrome P450 3A4; assay: Inhibition of human recombinant CYP3A4 assessed as biotransformation of 7-benzyloxyquinoline to 7-hydroxyquinoline measured every 15 mins by fluorescence intensity analysis; type: ADME

Row | SMILES | inhibition (INH) (Cytochrome P450 3A4 [1]) | Ki (Cytochrome P450 3A4 [2])
1 | COCO[C@@H]([C@@H]1OC(C)(C)O[C@H]1CO[Si](C)(C)C(C)(C)C)[C@@H](CN=[N+]=[N-])c1ccc2c(c1)OCO2 | Not Active | –
2 | COCO[C@@H]([C@@H]1OC(C)(C)O[C@H]1CO)[C@@H](CNC(=O)c1ccccc1)c1ccc2c(c1)OCO2 | – | 1550 nM
3 | CC1(C)O[C@@H]([C@H](OC(=O)c2ccccc2)[C@@H](CN=[N+]=[N-])c2ccc3c(c2)OCO3)[C@H](CO[Si](C)(C)C(C)(C)C)O1 | Not Active | –
4 | COCO[C@@H]([C@@H]1OC(C)(C)O[C@H]1CO[Si](C)(C)C(C)(C)C)[C@@H](CNC(=O)OC(C)(C)C)c1ccc2c(c1)OCO2 | – | 320 nM
5 | COCO[C@@H]([C@@H]1OC(C)(C)O[C@H]1COC(C)=O)[C@@H](CNC(=O)c1ccccc1)c1ccc2c(c1)OCO2 | – | 1010 nM
6 | COCO[C@@H]([C@@H]1OC(C)(C)O[C@H]1CO[Si](C)(C)C(C)(C)C)[C@@H](CNC(=O)c1ccccc1)c1ccc2c(c1)OCO2 | – | 30 nM
7 | COCO[C@@H]([C@@H]1OC(C)(C)O[C@H]1COS(=O)(=O)c1ccc(C)cc1)[C@@H](CNC(=O)c1ccccc1)c1ccc2c(c1)OCO2 | – | 70 nM
8 | COCO[C@@H]([C@@H]1OC(C)(C)O[C@H]1CO[Si](c1ccccc1)(c1ccccc1)C(C)(C)C)[C@@H](CNC(=O)c1ccccc1)c1ccc2c(c1)OCO2 | – | 580 nM
9 | O=C(NC[C@@H](c1ccc2c(c1)OCO2)[C@@H](O)[C@H](O)[C@@H](O)CO)c1ccccc1 | Not Active | –
10 | CC1(C)O[C@@H]([C@H](O)[C@@H](CNC(=O)c2ccccc2)c2ccc3c(c2)OCO3)[C@H](CO[Si](C)(C)C(C)(C)C)O1 | – | 170 nM
11 | CC1(C)O[C@@H]([C@H](O)[C@@H](CNC(=O)c2ccccc2)c2ccc3c(c2)OCO3)[C@H](CO)O1 | Not Active | –
